# From PubChem BioAssay AID2060507 (Molecular Pharmacology Branch, DTP, NCI, 2025)
# Tested on: 519858-162-T-J1-PDC complex spheroid viability
# Experiment: Anticancer human tumor 519858-162-T-J1-PDC patient-derived colon adenocarcinoma cell line growth inhibition [GQUAD]
# Settings: for IC50: curve of first compound; for viability, T/C: stronger effect = lower value
# Outline: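 Tumor cells were grown as complex spheroids with HUVEC endothelial cells and mesenchymal stem cells as stroma. G-quadruplex stabilizers were combined with targeted agents over half-log dilutions from near the clinical Cmax, or from 10 microM.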
# 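Also: spheroids exposed to compounds for 7 days.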
# 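For viability, T/C in this document: 100% = DMSO vehicle control viability.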
compound,measurement,setting,value
CC[C@@]1(O)C(=O)OCc2c1cc1n(c2=O)Cc2cc3c(CN(C)C)c(O)ccc3nc2-1 + Cc1cnc(CNC(=O)c2c(=O)c3ccc(N4CCCN(C)CC4)nc3n3c2sc2ccccc23)cn1,IC50,second compound 0.0316 µM,> 316 nM
same,IC50,second compound 0.1 µM,> 316 nM
same,IC50,second compound 0.316 µM,> 316 nM
same,IC50,second compound 1 µM,> 316 nM
same,IC50,second compound 3.16 µM,> 316 nM
same,IC50,second compound 10 µM,< 0.999 nM
same,"viability, T/C","second compound 0.0316 µM, first compound 0.000999 µM",88%
same,"viability, T/C","second compound 0.0316 µM, first compound 0.00316 µM",91%
same,"viability, T/C","second compound 0.0316 µM, first compound 0.00999 µM",89.7%
same,"viability, T/C","second compound 0.0316 µM, first compound 0.0316 µM",67.7%
same,"viability, T/C","second compound 0.0316 µM, first compound 0.0999 µM",78%
same,"viability, T/C","second compound 0.0316 µM, first compound 0.316 µM",83.7%
same,"viability, T/C","second compound 0.1 µM, first compound 0.000999 µM",93.8%
same,"viability, T/C","second compound 0.1 µM, first compound 0.00316 µM",89.3%
same,"viability, T/C","second compound 0.1 µM, first compound 0.00999 µM",84.5%
same,"viability, T/C","second compound 0.1 µM, first compound 0.0316 µM",79.5%
same,"viability, T/C","second compound 0.1 µM, first compound 0.0999 µM",70.9%
same,"viability, T/C","second compound 0.1 µM, first compound 0.316 µM",59.4%
same,"viability, T/C","second compound 0.316 µM, first compound 0.000999 µM",90.1%
same,"viability, T/C","second compound 0.316 µM, first compound 0.00316 µM",86.8%
same,"viability, T/C","second compound 0.316 µM, first compound 0.00999 µM",96.5%
same,"viability, T/C","second compound 0.316 µM, first compound 0.0316 µM",78.8%
same,"viability, T/C","second compound 0.316 µM, first compound 0.0999 µM",80.7%
same,"viability, T/C","second compound 0.316 µM, first compound 0.316 µM",74.6%
same,"viability, T/C","second compound 1 µM, first compound 0.000999 µM",66.1%
same,"viability, T/C","second compound 1 µM, first compound 0.00316 µM",58.9%
same,"viability, T/C","second compound 1 µM, first compound 0.00999 µM",72.8%
same,"viability, T/C","second compound 1 µM, first compound 0.0316 µM",49.7%
same,"viability, T/C","second compound 1 µM, first compound 0.0999 µM",59%
same,"viability, T/C","second compound 1 µM, first compound 0.316 µM",62.9%
same,"viability, T/C","second compound 3.16 µM, first compound 0.000999 µM",67.2%
same,"viability, T/C","second compound 3.16 µM, first compound 0.00316 µM",43.9%
same,"viability, T/C","second compound 3.16 µM, first compound 0.00999 µM",75.9%
same,"viability, T/C","second compound 3.16 µM, first compound 0.0316 µM",43%
same,"viability, T/C","second compound 3.16 µM, first compound 0.0999 µM",38.2%
same,"viability, T/C","second compound 3.16 µM, first compound 0.316 µM",64.4%
same,"viability, T/C","second compound 10 µM, first compound 0.000999 µM",58.5%
same,"viability, T/C","second compound 10 µM, first compound 0.00316 µM",34.9%
same,"viability, T/C","second compound 10 µM, first compound 0.00999 µM",40%
same,"viability, T/C","second compound 10 µM, first compound 0.0316 µM",41.2%
same,"viability, T/C","second compound 10 µM, first compound 0.0999 µM",37.8%
same,"viability, T/C","second compound 10 µM, first compound 0.316 µM",37.6%
